SMILES strings stand for the structures. pIC50: −log10 of the molar value. Where only a bound is given, the exact number is not on record here.

This test addresses GCN2 (Homo sapiens, UniProt Q9P2K8). Kind of test: GCN2 enzymatic endpoint assay: phosphorylation of GFP-eIF2α measured by TR-FRET (Lanthascreen). Conditions: tested as described in Example 77; compound and/or hydrochloride, dihydrochloride or trifluoroacetic acid salt; read-out: IC 50 Activity. It is filed as biochemical. The essentials: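 Endpoint GCN2 reaction with low ATP (2 μM) and 80 nM GFP-eIF2α, room temperature, 90 minutes. Detection mix with EDTA and Tb-labelled antibody; 520 nm/495 nm emission ratio reported.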
For orientation: In TR-FRET formats the signal depends on donor and acceptor labels being close together.

GCN2, sequence (Q9P2K8 whole entry): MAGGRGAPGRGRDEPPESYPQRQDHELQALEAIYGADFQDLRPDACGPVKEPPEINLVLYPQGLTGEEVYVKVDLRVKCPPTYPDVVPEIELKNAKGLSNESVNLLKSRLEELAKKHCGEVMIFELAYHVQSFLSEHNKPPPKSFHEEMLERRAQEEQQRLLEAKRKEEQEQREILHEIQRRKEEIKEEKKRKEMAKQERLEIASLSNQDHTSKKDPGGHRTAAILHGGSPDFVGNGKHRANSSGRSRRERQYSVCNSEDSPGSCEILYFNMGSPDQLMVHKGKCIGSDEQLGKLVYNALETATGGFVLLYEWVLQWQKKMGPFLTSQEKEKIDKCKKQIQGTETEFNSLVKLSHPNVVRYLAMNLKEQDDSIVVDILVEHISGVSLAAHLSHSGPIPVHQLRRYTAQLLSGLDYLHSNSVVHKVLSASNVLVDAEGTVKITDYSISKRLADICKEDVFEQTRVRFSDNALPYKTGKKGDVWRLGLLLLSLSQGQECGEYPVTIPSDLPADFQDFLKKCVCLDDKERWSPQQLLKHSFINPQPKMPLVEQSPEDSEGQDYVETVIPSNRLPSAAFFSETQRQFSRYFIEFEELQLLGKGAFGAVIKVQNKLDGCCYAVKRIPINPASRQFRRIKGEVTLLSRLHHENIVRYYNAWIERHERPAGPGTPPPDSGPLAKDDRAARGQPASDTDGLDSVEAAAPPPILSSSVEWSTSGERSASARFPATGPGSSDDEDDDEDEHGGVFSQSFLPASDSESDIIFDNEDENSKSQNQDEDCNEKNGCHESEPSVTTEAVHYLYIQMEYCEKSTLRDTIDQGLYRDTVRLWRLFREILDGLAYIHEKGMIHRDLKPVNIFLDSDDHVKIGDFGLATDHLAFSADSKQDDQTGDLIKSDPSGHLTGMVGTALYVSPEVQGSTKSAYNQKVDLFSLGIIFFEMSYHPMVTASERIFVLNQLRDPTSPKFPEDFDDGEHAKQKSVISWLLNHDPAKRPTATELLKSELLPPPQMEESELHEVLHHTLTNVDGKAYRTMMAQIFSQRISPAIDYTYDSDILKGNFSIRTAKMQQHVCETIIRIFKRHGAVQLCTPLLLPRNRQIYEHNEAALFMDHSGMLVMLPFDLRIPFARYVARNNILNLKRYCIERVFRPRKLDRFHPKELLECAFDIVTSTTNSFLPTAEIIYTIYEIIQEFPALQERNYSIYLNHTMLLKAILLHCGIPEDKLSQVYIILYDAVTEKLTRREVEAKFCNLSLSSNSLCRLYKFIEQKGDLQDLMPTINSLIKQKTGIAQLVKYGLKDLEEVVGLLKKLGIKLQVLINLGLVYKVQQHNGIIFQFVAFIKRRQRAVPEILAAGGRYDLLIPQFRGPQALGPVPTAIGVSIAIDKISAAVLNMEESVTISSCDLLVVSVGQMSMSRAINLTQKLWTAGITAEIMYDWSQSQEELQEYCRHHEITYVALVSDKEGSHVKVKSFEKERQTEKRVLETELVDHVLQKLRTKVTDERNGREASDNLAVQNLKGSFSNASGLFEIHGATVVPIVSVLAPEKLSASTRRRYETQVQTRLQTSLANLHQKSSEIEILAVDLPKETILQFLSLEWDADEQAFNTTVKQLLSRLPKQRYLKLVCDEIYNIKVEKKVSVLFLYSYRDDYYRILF

For the compound `CNC(=O)[C@@H]1CC[C@@H](Nc2ncc3c(I)nn(-c4cc(F)c5ncccc5c4)c3n2)C1` [(1R,3R)-3-[[1-(8-fluoro-6-quinolyl)-3-iodo-pyrazolo[3,4-d]pyrimidin-6-yl]amino]-N-methyl-cyclopentanecarboxamide], the pIC50 was more than 7.60. For the compound `CNC(=O)[C@]1(C)CC[C@@H](Nc2ncc3c(Br)nn(-c4ccc5c(c4)N(C(=O)C4CNC4)CC5)c3n2)C1` [(1R,3R)-3-[[1-[1-(azetidine-3-carbonyl)indolin-6-yl]-3-bromo-pyrazolo[3,4-d]pyrimidin-6-yl]amino]-N,1-dimethyl-cyclopentanecarboxamide], the pIC50 was 6.70 to 7.60.

As to `CNC(=O)[C@]1(C)CC[C@@H](Nc2ncc3c(Br)nn(-c4cc(F)c5nc(C(C)(C)N)ccc5c4)c3n2)C1` [(1R,3R)-3-[[1-[2-(1-amino-1-methyl-ethyl)-8-fluoro-6-quinolyl]-3-bromo-pyrazolo[3,4-d]pyrimidin-6-yl]amino]-N,1-dimethyl-cyclopentanecarboxamide], the pIC50 was 6.70 to 7.60. `CNC(=O)[C@]1(C)CC[C@@H](Nc2ncc3c(Br)nn(-c4ccc5c(c4)CCN(C(=O)C4CNC4)C5)c3n2)C1` [(1R,3R)-3-[[1-[2-(azetidine-3-carbonyl)-3,4-dihydro-1H-isoquinolin-6-yl]-3-bromo-pyrazolo[3,4-d]pyrimidin-6-yl]amino]-N,1-dimethyl-cyclopentanecarboxamide]: the pIC50 is 6.70 to 7.60. As for `CNC(=O)[C@]1(C)CC[C@@H](Nc2ncc3c(Br)nn(-c4ccc5c(c4)CN(C(=O)C4CNC4)C5)c3n2)C1` [(1R,3R)-3-[[1-[2-(azetidine-3-carbonyl)isoindolin-5-yl]-3-bromo-pyrazolo[3,4-d]pyrimidin-6-yl]amino]-N,1-dimethyl-cyclopentanecarboxamide], the pIC50 is 6.70 to 7.60. In the case of `CNC(=O)[C@]1(C)CC[C@@H](Nc2ncc3c(Br)nn(-c4cc(F)c5ncc(C(C)(C)N)cc5c4)c3n2)C1` [(1R,3R)-3-[[1-[3-(1-amino-1-methyl-ethyl)-8-fluoro-6-quinolyl]-3-bromo-pyrazolo [3,4-d]pyrimidin-6-yl]amino]-N,1-dimethyl-cyclopentanecarboxamide], the pIC50 is 6.70 to 7.60. As for `CNC(=O)[C@]1(C)CC[C@@H](Nc2ncc3c(Br)nn(-c4ccc(-c5ncco5)c(C(C)(C)CN)c4)c3n2)C1` [(1R,3R)-3-[[1-[3-(2-amino-1,1-dimethyl-ethyl)-4-oxazol-2-yl-phenyl]-3-bromo-pyrazolo[3,4-d]pyrimidin-6-yl]amino]-N,1-dimethyl-cyclopentanecarboxamide], the pIC50 was 6.70 to 7.60. As for `CNC(=O)[C@]1(C)CC[C@@H](Nc2ncc3c(Br)nn(-c4cc(Cl)cc(C(CN)OC)c4)c3n2)C1` (stereo partly drawn) [(1R,3R)-3-[[1-[3-(2-amino-1-methoxy-ethyl)-5-chloro-phenyl]-3-bromo-pyrazolo[3,4-d]pyrimidin-6-yl]amino]-N,1-dimethyl-cyclopentanecarboxamide; 2,2,2-trifluoroacetic acid], the pIC50 is 6.70 to 7.60.

As to `CNC(=O)[C@]1(C)CC[C@@H](Nc2ncc3c(Br)nn(-c4ccc(-c5nnc(C)s5)c(CC(N)C(F)(F)F)c4)c3n2)C1` (stereo partly drawn) [(1R,3R)-3-[[1-[3-(2-amino-3,3,3-trifluoro-propyl)-4-(5-methyl-1,3,4-thiadiazol-2-yl)phenyl]-3-bromo-pyrazolo[3,4-d]pyrimidin-6-yl]amino]-N,1-dimethyl-cyclopentane-carboxamide], the pIC50 is 6.70 to 7.60. As for `CNC(=O)[C@]1(C)CC[C@@H](Nc2ncc3c(Br)nn(-c4ccc(-c5nnc(C)o5)c(CCN)c4)c3n2)C1` [(1R,3R)-3-[[1-[3-(2-aminoethyl)-4-(5-methyl-1,3,4-oxadiazol-2-yl)phenyl]-3-bromopyrazolo[3,4-d]pyrimidin-6-yl]amino]-N,1-dimethyl-cyclopentane-carboxamide], the pIC50 was 6.70 to 7.60. The result for `Cc1nnc(-c2ccc(-n3nc(Br)c4cnc(N[C@@H]5CC[C@@](C)(C(=O)O)C5)nc43)cc2CCN)s1` [(1R,3R)-3-[[1-[3-(2-aminoethyl)-4-(5-methyl-1,3,4-thiadiazol-2-yl)phenyl]-3-bromo-pyrazolo[3,4-d]pyrimidin-6-yl]amino]-1-methyl-cyclopentanecarboxylic acid] reads 6.70 to 7.60. Take `CNC(=O)[C@]1(C)CC[C@@H](Nc2ncc3c(Br)nn(-c4ccc(-c5nnc(C)s5)c(CCN)c4)c3n2)C1` [(1R,3R)-3-[[1-[3-(2-aminoethyl)-4-(5-methyl-1,3,4-thiadiazol-2-yl)phenyl]-3-bromo-pyrazolo[3,4-d]pyrimidin-6-yl]amino]-N,1-dimethyl-cyclopentane-carboxamide]: the pIC50 was 6.70 to 7.60.

For the compound `CNC(=O)[C@]1(C)CC[C@@H](Nc2ncc3c(Br)nn(-c4ccc(C#N)c(CCN)c4)c3n2)C1` [(1R,3R)-3-[[1-[3-(2-aminoethyl)-4-cyano-phenyl]-3-bromo-pyrazolo[3,4-d]pyrimidin-6-yl]amino]-N,1-dimethyl-cyclopentanecarboxamide], the pIC50 is 6.70 to 7.60.

As to `CNC(=O)[C@]1(C)CC[C@@H](Nc2ncc3c(Br)nn(-c4ccc(F)c(CCN)c4)c3n2)C1` [(1R,3R)-3-[[1-[3-(2-aminoethyl)-4-fluoro-phenyl]-3-bromo-pyrazolo[3,4-d]pyrimidin-6-yl]amino]-N,1-dimethyl-cyclopentane-carboxamide], the pIC50 was 6.70 to 7.60. With `CNC(=O)[C@]1(C)CC[C@@H](Nc2ncc3c(Br)nn(-c4ccc(-c5ncco5)c(CCN)c4)c3n2)C1` [(1R,3R)-3-[[1-[3-(2-aminoethyl)-4-oxazol-2-yl-phenyl]-3-bromo-pyrazolo[3,4-d]pyrimidin-6-yl]amino]-N,1-dimethyl-cyclopentanecarboxamide], the pIC50 was 6.70 to 7.60. For `CNC(=O)[C@]1(C)CC[C@@H](Nc2ncc3c(Br)nn(-c4ccc(-c5ncco5)c(NC(=O)CCN)c4)c3n2)C1` [(1R,3R)-3-[[1-[3-(3-aminopropanoyl-amino)-4-oxazol-2-yl-phenyl]-3-bromo-pyrazolo[3,4-d]pyrimidin-6-yl]amino]-N,1-dimethyl-cyclopentane-carboxamide], the pIC50 is more than 7.60. As for `CNC(=O)[C@]1(C)CC[C@@H](Nc2ncc3c(Br)nn(-c4ccc5ncc(NC(=O)CCN)cc5c4)c3n2)C1` [(1R,3R)-3-[[1-[3-(3-aminopropanoylamino)-6-quinolyl]-3-bromo-pyrazolo[3,4-d]pyrimidin-6-yl]amino]-N,1-dimethyl-cyclopentanecarboxamide], the pIC50 was more than 7.60. `CNC(=O)[C@]1(C)CC[C@@H](Nc2ncc3c(Br)nn(-c4ccc(-c5nnc(C)s5)c(CCCN)c4)c3n2)C1` [(1R,3R)-3-[[1-[3-(3-aminopropyl)-4-(5-methyl-1,3,4-thiadiazol-2-yl)phenyl]-3-bromopyrazolo[3,4-d]pyrimidin-6-yl]amino]-N,1-dimethyl-cyclopentanecarboxamide]: the pIC50 was 6.70 to 7.60. The result for `CNC(=O)[C@]1(C)CC[C@@H](Nc2ncc3c(Br)nn(-c4ccc(-c5cccnc5)c(CN)c4)c3n2)C1` [(1R,3R)-3-[[1-[3-(aminomethyl)-4-(3-pyridyl)phenyl]-3-bromo-pyrazolo[3,4-d]pyrimidin-6-yl]amino]-N,1-dimethyl-cyclopentane-carboxamide] reads 6.70 to 7.60; that for `CNC(=O)[C@]1(C)CC[C@@H](Nc2ncc3c(Br)nn(-c4cc(CN)cc(C(F)(F)F)c4)c3n2)C1` [(1R,3R)-3-[[1-[3-(aminomethyl)-5-(trifluoromethyl)phenyl]-3-bromo-pyrazolo[3,4-d]pyrimidin-6-yl]amino]-N,1-dimethyl-cyclopentanecarboxamide; 2,2,2-trifluoroacetic acid], 6.70 to 7.60.

(Values after patent publication US11046699B2, “Pyrazolo-pyrimidin-amino-cycloalkyl compounds and their therapeutic uses” (RAPT THERAPEUTICS, INC., priority 2018, dated 2021).)
